The target in one assay is T1, human V2 receptor (Homo sapiens, UniProt P30518).
T1 construct: expressed in transfected cells; host or cells: CHO K1 (ATCC) expressing firefly luciferase under a CRE-responsive promoter
The assay can be described thus: Cellular in vitro assay for determining vasopressin receptor activity, V2 receptor cell line (CHO, CRE-luciferase). The class given is cell-based. The settings on record: CHO cell line transfected with human V2 receptor; [Arg8]-vasopressin at EC50 concentration; read-out: IC50 hV2.

A further assay deals with T2, human V1a receptor (Homo sapiens, UniProt P37288).
T2 construct: expressed in transfected cells; host or cells: CHO K1 (ATCC), also stably transfected with a modified aequorin
Kind of assay: Cellular in vitro assay for determining vasopressin receptor activity, V1a receptor cell line (CHO, aequorin luminescence). The class given is cell-based. As to conditions: for IC50: CHO cell line transfected with human V1a receptor, [Arg]-vasopressin at EC50 concentration, read-out: IC50 hV1a; for ratio IC50 hV2/hV1a: selectivity ratio IC50 hV2 / IC50 hV1a. The essentials:
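Luminescence from reconstituted aequorin, reporting intracellular calcium release, was measured immediately after adding [Arg]-vasopressin at EC50 concentration to CHO K1 cells pretreated 10 minutes with graded compound concentrations. Inhibition gave IC50 values.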

The structures appear in SMILES notation.

T2 sequence (P37288 whole entry): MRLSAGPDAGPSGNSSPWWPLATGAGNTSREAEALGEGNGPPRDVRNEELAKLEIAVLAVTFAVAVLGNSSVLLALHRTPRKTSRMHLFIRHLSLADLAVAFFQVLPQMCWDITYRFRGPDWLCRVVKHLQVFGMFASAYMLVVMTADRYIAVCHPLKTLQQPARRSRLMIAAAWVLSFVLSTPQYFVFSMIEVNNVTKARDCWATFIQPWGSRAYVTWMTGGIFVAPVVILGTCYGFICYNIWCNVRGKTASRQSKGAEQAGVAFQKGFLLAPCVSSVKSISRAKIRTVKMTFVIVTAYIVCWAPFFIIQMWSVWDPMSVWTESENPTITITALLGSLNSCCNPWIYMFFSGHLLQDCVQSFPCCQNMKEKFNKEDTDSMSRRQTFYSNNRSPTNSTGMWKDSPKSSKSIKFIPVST
T1 sequence (P30518 whole entry): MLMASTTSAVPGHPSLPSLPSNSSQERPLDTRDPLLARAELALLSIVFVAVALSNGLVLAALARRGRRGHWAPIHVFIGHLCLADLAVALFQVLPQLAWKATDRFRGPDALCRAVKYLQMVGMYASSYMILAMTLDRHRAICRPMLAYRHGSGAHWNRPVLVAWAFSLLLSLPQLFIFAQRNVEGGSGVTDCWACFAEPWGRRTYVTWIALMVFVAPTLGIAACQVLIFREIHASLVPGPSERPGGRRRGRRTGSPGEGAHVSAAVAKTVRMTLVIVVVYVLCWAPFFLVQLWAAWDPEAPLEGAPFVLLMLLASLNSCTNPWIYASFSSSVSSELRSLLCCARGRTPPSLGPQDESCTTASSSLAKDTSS

For the compound `CC1(NC(=O)c2cccnc2-n2nc(Cn3nc(-c4ccc(Cl)cc4)n(C[C@H](O)C(F)(F)F)c3=O)nc2C(=O)N2CCNC(=O)C2)CC1` [Example 525, 2-{3-({3-(4-Chlorophenyl)-5-oxo-4-[(2S)-3,3,3-trifluoro-2-hydroxypropyl]-4,5-dihydro-1H-1,2,4-triazol-1-yl}methyl)-5-[(3-oxopiperazin-1-yl)carbonyl]-1H-1,2,4-triazol-1-yl}-N-(1-methylcyclopropyl)pyridine-3-carboxamide], the IC50 (as a rule, the concentration that gives 50% inhibition) at human V2 receptor was 6550 nM. Also, at human V1a receptor, the IC50 stood at 9400 nM and the “ratio IC50 hV2/hV1a” value is listed as 0.7.
The matching figures for `O=C(NCC(F)(F)F)c1cccnc1-n1nc(Cn2nc(-c3ccc(Cl)cc3)n(C[C@H](O)C(F)(F)F)c2=O)nc1C(=O)N1CCS(=O)(=O)CC1` [Example 528, 2-{3-({3-(4-Chlorophenyl)-5-oxo-4-[(2S)-3,3,3-trifluoro-2-hydroxypropyl]-4,5-dihydro-1H-1,2,4-triazol-1-yl}methyl)-5-[(1,1-dioxidothiomorpholin-4-yl)carbonyl]-1H-1,2,4-triazol-1-yl}-N-(2,2,2-trifluoroethyl)pyridine-3-carboxamide]: 780 nM, 75.5 nM and 10.3.
Regarding `O=C(NCCC(F)(F)F)c1cccnc1-n1nc(Cn2nc(-c3ccc(Cl)cc3)n(C[C@H](O)C(F)(F)F)c2=O)nc1C(=O)N1CCS(=O)(=O)CC1` [Example 529, 2-{3-({3-(4-Chlorophenyl)-5-oxo-4-[(2S)-3,3,3-trifluoro-2-hydroxypropyl]-4,5-dihydro-1H-1,2,4-triazol-1-yl}methyl)-5-[(1,1-dioxidothiomorpholin-4-yl)carbonyl]-1H-1,2,4-triazol-1-yl}-N-(3,3,3-trifluoropropyl)pyridine-3-carboxamide], the IC50 at human V2 receptor amounted to 2900 nM; at human V1a receptor, 97.5 nM. At human V1a receptor, the “ratio IC50 hV2/hV1a” value worked out at 29.7.
With `O=C(NC1CC1)c1cccnc1-n1nc(Cn2nc(-c3ccc(Cl)cc3)n(C[C@H](O)C(F)(F)F)c2=O)nc1C(=O)N1CCS(=O)(=O)CC1` [Example 530, 2-{3-({3-(4-Chlorophenyl)-5-oxo-4-[(2S)-3,3,3-trifluoro-2-hydroxypropyl]-4,5-dihydro-1H-1,2,4-triazol-1-yl}methyl)-5-[(1,1-dioxidothiomorpholin-4-yl)carbonyl]-1H-1,2,4-triazol-1-yl}-N-cyclopropylpyridine-3-carboxamide], the IC50 on human V2 receptor is 5250 nM. For the same compound, on human V1a receptor, the IC50 is 530 nM and the “ratio IC50 hV2/hV1a” value is recorded as 9.9.
Regarding `CC1(NC(=O)c2cccnc2-n2nc(Cn3nc(-c4ccc(Cl)cc4)n(C[C@H](O)C(F)(F)F)c3=O)nc2C(=O)N2CCS(=O)(=O)CC2)CC1` [Example 531, 2-{3-({3-(4-Chlorophenyl)-5-oxo-4-[(2S)-3,3,3-trifluoro-2-hydroxypropyl]-4,5-dihydro-1H-1,2,4-triazol-1-yl}methyl)-5-[(1,1-dioxidothiomorpholin-4-yl)carbonyl]-1H-1,2,4-triazol-1-yl}-N-(1-methylcyclopropyl)pyridine-3-carboxamide], at human V2 receptor, the IC50 was 2850 nM. Further, at human V1a receptor, the IC50 worked out at 96.5 nM and the “ratio IC50 hV2/hV1a” value amounted to 29.5.
On to `CC(C)(N)CNC(=O)c1nc(Cn2nc(-c3ccc(Cl)cc3)n(C[C@H](O)C(F)(F)F)c2=O)nn1-c1cnccc1C(=O)NCC(F)(F)F` [Example 534, 3-{5-[(2-Amino-2-methylpropyl)carbamoyl]-3-({3-(4-chlorophenyl)-5-oxo-4-[(2S)-3,3,3-trifluoro-2-hydroxypropyl]-4,5-dihydro-1H-1,2,4-triazol-1-yl}methyl)-1H-1,2,4-triazol-1-yl}-N-(2,2,2-trifluoroethyl)pyridine-4-carboxamide], for which the IC50 on human V2 receptor was 3620 nM. Besides, at human V1a receptor, the IC50 amounted to 180 nM and the “ratio IC50 hV2/hV1a” value is given as 20.1.

Source of the values: patent publication US11173151B2, “Substituted triazole derivatives and uses thereof” (BAYER AKTIENGESELLSCHAFT, priority 2017, dated 2021).
